Compound in one experiment: O=[As]([O-])(O)O.[K+] [potassium arsenate]
Briefly: thermal stability z-score vs DMSO; higher = more thermally stabilized by treatment. Conditions: HeLa; arsenate concentration 1 mM. On the procedure:
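Cellular thermal proteome profiling in HeLa cells treated with 1 mM arsenate for 1 h (DMSO pretreatment), heated to ten temperatures (37-66.3 °C). Soluble protein was quantified by TMT mass spectrometry relative to DMSO controls; the thermal stability score was transformed to a z-score; mean of n = 3 experiments.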

Compound in a further experiment: NC(=O)CCCCC1CCSS1 [lipoamide]
Described as above. Particulars: HeLa, lipoamide concentration 100 µM. On the procedure: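 Cellular thermal proteome profiling in HeLa cells. Cells were treated with 100 µM lipoamide for 1 h, with or without 1 mM arsenate for a further 1 h, then heated to ten temperatures (37-66.3 °C), and soluble protein was quantified by TMT mass spectrometry relative to 0.1% DMSO controls. The thermal stability score (sum of log2 fold changes minus the abundance score) was transformed to a z-score; mean of n = 3 experiments.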

[1] abbreviates: arsenate co-treatment: 1 mM arsenate 1 h.
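Further: each temperature applied for 3 min, abundance score taken as mean log2 fold change at the two lowest temperatures, z-score obtained by mean subtraction and division by SD.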

Chain of UniProt Q9BV44 (Q9BV44 whole entry): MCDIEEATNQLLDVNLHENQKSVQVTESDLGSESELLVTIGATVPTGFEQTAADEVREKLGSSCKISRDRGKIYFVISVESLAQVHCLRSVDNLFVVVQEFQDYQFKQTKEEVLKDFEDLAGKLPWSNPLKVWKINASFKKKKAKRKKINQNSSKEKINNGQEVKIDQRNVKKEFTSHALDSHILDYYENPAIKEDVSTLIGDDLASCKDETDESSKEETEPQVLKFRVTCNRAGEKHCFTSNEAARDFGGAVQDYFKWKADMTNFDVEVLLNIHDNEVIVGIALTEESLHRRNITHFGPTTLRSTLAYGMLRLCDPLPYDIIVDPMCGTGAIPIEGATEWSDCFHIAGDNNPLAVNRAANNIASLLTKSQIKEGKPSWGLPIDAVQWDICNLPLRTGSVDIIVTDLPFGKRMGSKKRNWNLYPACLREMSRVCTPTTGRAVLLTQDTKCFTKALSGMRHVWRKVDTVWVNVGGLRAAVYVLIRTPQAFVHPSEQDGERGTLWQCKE
Chain of UniProt Q969H8 (Q969H8 whole entry): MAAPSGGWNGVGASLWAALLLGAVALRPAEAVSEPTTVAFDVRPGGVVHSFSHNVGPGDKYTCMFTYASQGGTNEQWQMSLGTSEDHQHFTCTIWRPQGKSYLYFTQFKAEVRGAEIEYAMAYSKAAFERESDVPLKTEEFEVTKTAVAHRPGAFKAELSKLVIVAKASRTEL
Chain of UniProt Q15427 (Q15427 whole entry): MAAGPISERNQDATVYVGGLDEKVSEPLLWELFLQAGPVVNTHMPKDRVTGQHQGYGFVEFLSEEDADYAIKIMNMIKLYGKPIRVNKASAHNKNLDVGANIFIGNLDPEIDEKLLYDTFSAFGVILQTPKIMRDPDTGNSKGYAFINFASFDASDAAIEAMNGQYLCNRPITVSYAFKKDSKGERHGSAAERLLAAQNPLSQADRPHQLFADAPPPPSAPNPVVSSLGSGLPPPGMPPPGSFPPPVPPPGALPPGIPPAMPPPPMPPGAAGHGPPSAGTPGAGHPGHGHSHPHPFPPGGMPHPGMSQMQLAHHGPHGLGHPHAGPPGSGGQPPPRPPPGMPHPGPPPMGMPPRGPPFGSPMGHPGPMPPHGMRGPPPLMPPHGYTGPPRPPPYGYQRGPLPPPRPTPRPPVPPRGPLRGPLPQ
Chain of UniProt Q96EA4 (Q96EA4 whole entry): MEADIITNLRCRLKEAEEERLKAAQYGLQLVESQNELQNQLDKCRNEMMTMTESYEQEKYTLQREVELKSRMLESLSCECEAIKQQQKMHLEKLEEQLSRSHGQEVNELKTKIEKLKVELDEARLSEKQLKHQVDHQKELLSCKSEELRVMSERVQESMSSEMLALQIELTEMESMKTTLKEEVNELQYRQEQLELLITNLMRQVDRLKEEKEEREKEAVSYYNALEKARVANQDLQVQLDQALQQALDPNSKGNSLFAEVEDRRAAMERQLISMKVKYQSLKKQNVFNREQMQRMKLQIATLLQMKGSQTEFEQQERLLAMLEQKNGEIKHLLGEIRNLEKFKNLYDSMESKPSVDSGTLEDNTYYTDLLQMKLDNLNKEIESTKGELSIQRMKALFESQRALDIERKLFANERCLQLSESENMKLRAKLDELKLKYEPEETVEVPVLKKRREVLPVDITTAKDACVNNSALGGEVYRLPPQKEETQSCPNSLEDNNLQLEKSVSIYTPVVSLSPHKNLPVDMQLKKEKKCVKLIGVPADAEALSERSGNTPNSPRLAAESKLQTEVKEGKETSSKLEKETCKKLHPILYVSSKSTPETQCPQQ
Chain of UniProt Q8N3P4 (Q8N3P4 whole entry): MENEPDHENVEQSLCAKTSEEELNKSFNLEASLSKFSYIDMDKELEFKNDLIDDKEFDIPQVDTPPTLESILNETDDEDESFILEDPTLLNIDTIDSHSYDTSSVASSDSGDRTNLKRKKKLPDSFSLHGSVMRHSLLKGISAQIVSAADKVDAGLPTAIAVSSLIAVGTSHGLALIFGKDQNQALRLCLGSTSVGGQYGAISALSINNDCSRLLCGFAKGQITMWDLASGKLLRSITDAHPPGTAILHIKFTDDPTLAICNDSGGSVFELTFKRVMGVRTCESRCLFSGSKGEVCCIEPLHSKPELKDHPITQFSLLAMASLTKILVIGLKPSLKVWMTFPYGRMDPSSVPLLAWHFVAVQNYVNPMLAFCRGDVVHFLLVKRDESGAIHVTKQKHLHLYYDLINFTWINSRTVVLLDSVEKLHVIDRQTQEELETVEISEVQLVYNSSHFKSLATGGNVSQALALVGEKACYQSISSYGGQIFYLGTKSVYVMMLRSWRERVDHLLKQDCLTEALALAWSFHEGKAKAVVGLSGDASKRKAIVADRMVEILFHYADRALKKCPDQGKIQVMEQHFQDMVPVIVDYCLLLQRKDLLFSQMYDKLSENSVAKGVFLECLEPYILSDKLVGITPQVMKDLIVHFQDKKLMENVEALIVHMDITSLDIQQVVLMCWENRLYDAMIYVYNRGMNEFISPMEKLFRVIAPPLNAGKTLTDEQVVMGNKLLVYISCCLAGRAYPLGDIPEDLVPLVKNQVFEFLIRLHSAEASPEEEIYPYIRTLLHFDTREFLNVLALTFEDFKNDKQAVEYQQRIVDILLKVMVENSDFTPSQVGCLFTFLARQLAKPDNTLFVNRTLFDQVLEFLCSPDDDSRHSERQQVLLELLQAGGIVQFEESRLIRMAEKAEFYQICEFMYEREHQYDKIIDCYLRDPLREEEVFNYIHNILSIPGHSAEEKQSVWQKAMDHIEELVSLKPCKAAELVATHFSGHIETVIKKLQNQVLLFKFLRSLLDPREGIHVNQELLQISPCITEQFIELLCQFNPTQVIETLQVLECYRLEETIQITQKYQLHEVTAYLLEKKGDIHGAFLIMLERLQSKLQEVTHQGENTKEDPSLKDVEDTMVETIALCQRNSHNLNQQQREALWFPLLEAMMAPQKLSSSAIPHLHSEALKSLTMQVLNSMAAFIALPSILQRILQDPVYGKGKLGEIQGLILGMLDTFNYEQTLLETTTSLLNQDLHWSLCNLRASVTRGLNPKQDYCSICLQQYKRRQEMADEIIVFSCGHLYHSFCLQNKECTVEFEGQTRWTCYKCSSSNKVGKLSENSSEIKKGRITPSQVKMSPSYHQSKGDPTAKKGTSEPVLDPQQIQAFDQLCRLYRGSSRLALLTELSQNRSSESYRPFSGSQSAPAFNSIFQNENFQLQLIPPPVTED
Chain of UniProt Q9BTE6 (Q9BTE6 whole entry): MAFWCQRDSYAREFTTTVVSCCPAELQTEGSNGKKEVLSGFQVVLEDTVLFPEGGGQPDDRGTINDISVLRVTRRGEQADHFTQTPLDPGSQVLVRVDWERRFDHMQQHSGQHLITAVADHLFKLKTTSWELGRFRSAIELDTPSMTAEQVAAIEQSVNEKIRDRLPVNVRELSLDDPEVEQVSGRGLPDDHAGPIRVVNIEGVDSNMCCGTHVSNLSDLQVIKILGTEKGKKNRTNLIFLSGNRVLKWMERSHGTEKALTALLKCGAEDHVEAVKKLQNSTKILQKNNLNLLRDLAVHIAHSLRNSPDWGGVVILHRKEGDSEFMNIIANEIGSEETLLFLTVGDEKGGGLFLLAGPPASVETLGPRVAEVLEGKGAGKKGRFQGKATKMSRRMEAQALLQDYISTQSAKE
Chain of UniProt Q16626 (Q16626 whole entry): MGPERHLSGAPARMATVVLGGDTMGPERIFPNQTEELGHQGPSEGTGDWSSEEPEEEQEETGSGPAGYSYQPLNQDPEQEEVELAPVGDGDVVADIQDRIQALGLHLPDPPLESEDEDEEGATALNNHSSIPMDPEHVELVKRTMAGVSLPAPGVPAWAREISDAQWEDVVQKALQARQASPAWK
Chain of UniProt O43818 (O43818 whole entry): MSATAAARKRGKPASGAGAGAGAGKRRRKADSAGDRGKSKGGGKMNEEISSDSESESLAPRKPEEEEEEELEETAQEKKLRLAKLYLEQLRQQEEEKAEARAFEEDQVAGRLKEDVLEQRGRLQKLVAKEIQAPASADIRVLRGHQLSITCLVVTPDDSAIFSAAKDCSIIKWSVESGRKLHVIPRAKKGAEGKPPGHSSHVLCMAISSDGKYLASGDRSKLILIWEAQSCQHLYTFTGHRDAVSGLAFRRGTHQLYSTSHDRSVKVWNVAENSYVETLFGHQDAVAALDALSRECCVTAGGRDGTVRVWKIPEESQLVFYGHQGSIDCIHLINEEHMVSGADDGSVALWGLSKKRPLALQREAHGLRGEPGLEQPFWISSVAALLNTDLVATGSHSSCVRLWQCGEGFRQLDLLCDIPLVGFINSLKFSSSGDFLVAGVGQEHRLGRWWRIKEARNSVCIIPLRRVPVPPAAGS
Chain of UniProt Q8TBA6 (Q8TBA6 whole entry): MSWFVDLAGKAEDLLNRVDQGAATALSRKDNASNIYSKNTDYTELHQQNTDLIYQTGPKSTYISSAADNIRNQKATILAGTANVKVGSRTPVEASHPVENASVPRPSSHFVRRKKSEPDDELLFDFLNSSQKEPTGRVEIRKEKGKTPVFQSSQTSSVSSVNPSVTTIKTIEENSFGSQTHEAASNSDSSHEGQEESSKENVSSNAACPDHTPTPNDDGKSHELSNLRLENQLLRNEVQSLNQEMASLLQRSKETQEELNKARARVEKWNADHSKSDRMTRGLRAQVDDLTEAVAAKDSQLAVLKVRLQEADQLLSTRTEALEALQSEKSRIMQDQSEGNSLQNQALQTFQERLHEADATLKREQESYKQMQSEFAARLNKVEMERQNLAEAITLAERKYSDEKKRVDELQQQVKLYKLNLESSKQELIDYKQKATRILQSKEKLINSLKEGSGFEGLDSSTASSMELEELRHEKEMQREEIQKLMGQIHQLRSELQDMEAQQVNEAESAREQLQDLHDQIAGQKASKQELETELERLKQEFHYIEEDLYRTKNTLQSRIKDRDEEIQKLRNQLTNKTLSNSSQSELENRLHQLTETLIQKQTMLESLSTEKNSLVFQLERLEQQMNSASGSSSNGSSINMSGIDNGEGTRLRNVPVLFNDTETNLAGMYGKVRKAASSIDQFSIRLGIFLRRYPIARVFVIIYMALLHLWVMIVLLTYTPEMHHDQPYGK

Take CCNB1 (UniProt P14635): the thermal stability z-score with potassium arsenate came out at 1.43; with lipoamide (setting [1]) it was 0.729; with lipoamide (arsenate co-treatment: none), 0.477.
On to RRP9 (UniProt O43818), for which the thermal stability z-score in the experiment with potassium arsenate was -0.755; with lipoamide (setting [1]) it was -0.195; in the experiment with lipoamide (arsenate co-treatment: none), 0.108.
The corresponding values for SMARCA4 (UniProt P51532) are -0.673, 0.212 and 0.272.
On to RPL22L1 (UniProt Q6P5R6), for which the thermal stability z-score is -0.919 with potassium arsenate, -0.147 with lipoamide (setting [1]) and -0.537 with lipoamide (arsenate co-treatment: none).
Regarding SMARCC1 (UniProt Q92922), the thermal stability z-score is -0.204 with potassium arsenate, 0.791 with lipoamide (setting [1]) and 1.14 with lipoamide (arsenate co-treatment: none).
With WDR19 (UniProt Q8NEZ3), the thermal stability z-score with potassium arsenate was 0.81; in the experiment with lipoamide (setting [1]), -0.121; in the experiment with lipoamide (arsenate co-treatment: none), 0.369.
On the same counts, the results for SURF4 (UniProt O15260) are -0.243, -0.416 and -0.214.
The corresponding values for FARSB (UniProt Q9NSD9) are 0.893, 0.262 and -0.0911.
On to GOLGA5 (UniProt Q8TBA6), for which the thermal stability z-score came to 0.197 with potassium arsenate, 0.419 with lipoamide (setting [1]) and 0.582 with lipoamide (arsenate co-treatment: none).
Take TPM3 (UniProt P06753): the thermal stability z-score with potassium arsenate came out at 0.131; with lipoamide (setting [1]) it was 0.676; with lipoamide (arsenate co-treatment: none), 0.821.
On the same counts, the results for THUMPD3 (UniProt Q9BV44) are 0.37, 0.0954 and -0.489.
The corresponding values for RALGAPB (UniProt Q86X10) are -0.112, -0.0332 and -0.00538.
For the target DYNC1I2 (UniProt Q13409), the thermal stability z-score is -0.19 in the experiment with potassium arsenate, 0.0629 with lipoamide (setting [1]) and 0.266 with lipoamide (arsenate co-treatment: none).
With CSNK1A1 (UniProt P48729), the thermal stability z-score with potassium arsenate was 1.08; with lipoamide (setting [1]) it was -0.534; with lipoamide (arsenate co-treatment: none), -0.478.
On the same counts, the results for QRICH1 (UniProt Q2TAL8) are 0.0998, -0.132 and -0.0369.
Consider RAD23A (UniProt P54725), for which the thermal stability z-score with potassium arsenate is -0.142; in the experiment with lipoamide (setting [1]), 0.0472; in the experiment with lipoamide (arsenate co-treatment: none) it was 0.234.
On the same counts, the results for UBE2J2 (UniProt Q8N2K1) are -0.0347, -0.286 and -0.461.
Regarding VPS8 (UniProt Q8N3P4), the thermal stability z-score with potassium arsenate is -0.17; with lipoamide (setting [1]) it was -0.0735; with lipoamide (arsenate co-treatment: none), -0.283.
On the same counts, the results for RPL36 (UniProt Q9Y3U8) are -1.19, 0.354 and -0.0802.
Regarding CRBN (UniProt Q96SW2), the thermal stability z-score with potassium arsenate was -0.0801; in the experiment with lipoamide (setting [1]), 0.304; in the experiment with lipoamide (arsenate co-treatment: none), -0.141.
The corresponding values for C17ORF59 (UniProt Q96GS4) are -0.163, 0.136 and -0.131.
As to SLIRP (UniProt Q9GZT3), the thermal stability z-score with potassium arsenate was 0.123; in the experiment with lipoamide (setting [1]), -0.917; with lipoamide (arsenate co-treatment: none), -0.197.
On the same counts, the results for UCK2 (UniProt Q9BZX2) are 0.093, -0.0152 and 0.141.
In the case of STAT5A (UniProt P42229), the thermal stability z-score with potassium arsenate is 0.0163; with lipoamide (setting [1]) it was -0.0259; in the experiment with lipoamide (arsenate co-treatment: none), 0.314.
For the target PDLIM7 (UniProt Q9NR12), the thermal stability z-score with potassium arsenate is -1.12; with lipoamide (setting [1]), -0.856; with lipoamide (arsenate co-treatment: none) it was -0.95.
In the case of RFC1 (UniProt P35251), the thermal stability z-score was -0.0625 with potassium arsenate, -0.248 in the experiment with lipoamide (setting [1]) and 1.77 with lipoamide (arsenate co-treatment: none).
On the same counts, the results for KIAA2013 (UniProt Q8IYS2) are -1.04, 1.03 and 1.5.
On to SLC38A10 (UniProt Q9HBR0), for which the results for the thermal stability z-score with potassium arsenate, with lipoamide (setting [1]) and with lipoamide (arsenate co-treatment: none) were -0.0408, 0.639 and 0.226, respectively.
The corresponding values for AARSD1 (UniProt Q9BTE6) are 0.428, 0.0117 and 0.0955.
In the case of SPDL1 (UniProt Q96EA4), the values for the thermal stability z-score in the experiment with potassium arsenate, with lipoamide (setting [1]) and with lipoamide (arsenate co-treatment: none) were 1.2, 0.746 and 0.706, respectively.
Take MYDGF (UniProt Q969H8): the thermal stability z-score with potassium arsenate was -0.0349; with lipoamide (setting [1]), -1.32; with lipoamide (arsenate co-treatment: none), -1.06.
The corresponding values for FAHD2A (UniProt Q96GK7) are -0.0563, 0.146 and -0.0859.
On the same counts, the results for PLAUR (UniProt Q03405) are -0.768, -1.4 and -2.11.
The corresponding values for SERPINH1 (UniProt P50454) are 0.567, -3.31 and -2.2.
Take RPL35 (UniProt P42766): the thermal stability z-score was -0.812 with potassium arsenate, 0.579 with lipoamide (setting [1]) and 0.674 with lipoamide (arsenate co-treatment: none).
Regarding ACTR3 (UniProt P61158), the thermal stability z-score with potassium arsenate is -0.483; with lipoamide (setting [1]), -0.149; with lipoamide (arsenate co-treatment: none) it was 0.128.
On to SPRYD7 (UniProt Q5W111), for which the thermal stability z-score with potassium arsenate was -0.339; in the experiment with lipoamide (setting [1]), 0.397; with lipoamide (arsenate co-treatment: none) it was 0.0188.
On the same counts, the results for GOLPH3L (UniProt Q9H4A5) are -0.58, 0.105 and -1.21.
For the target MEA1 (UniProt Q16626), the values for the thermal stability z-score in the experiment with potassium arsenate, with lipoamide (setting [1]) and in the experiment with lipoamide (arsenate co-treatment: none) were 0.711, 1.48 and 1.28, respectively.
On the same counts, the results for DDX23 (UniProt Q9BUQ8) are -0.836, 0.326 and 0.137.
With P3H4 (UniProt Q92791), the thermal stability z-score was 0.936 with potassium arsenate, -4.72 with lipoamide (setting [1]) and -3.94 with lipoamide (arsenate co-treatment: none).
Regarding SF3B4 (UniProt Q15427), the thermal stability z-score is -0.243 with potassium arsenate, 0.152 with lipoamide (setting [1]) and -0.211 with lipoamide (arsenate co-treatment: none).

The values above are taken from the supplement of paper PMC12463676, “Small-molecule dissolution of stress granules by redox modulation benefits ALS models” (Nature Chemical Biology, 2025).
